From patent US8633243B2, “Forms of CDDO methyl ester” (priority 2007, dated 2014)
pIC50: −log10 of the molar value. ≈ marks a conversion by molar mass, not a printed value. Like-named read-outs stand apart in the source and are kept apart here.

Assays:
[1] = system: L3.6PL Pancreatic Cancer Xenograft; assay: L3.6PL Pancreatic Cancer Xenograft; settings: i.v.
[2] = Phase I trial, serum creatinine; settings: day 21
[3] = system: advanced (metastatic) cancer; assay: Phase I dose-escalation trial, safety and anti-tumor activity; format: in vivo, human
Source text: Both the safety and anti-tumor activity of CDDO-Me were reviewed. In addition, the biological effects of CDDO-Me were characterized. […] Several patients (approximately 75% of evaluable patients) were considered to have stable disease (based on standard radiological and clinical criteria) at the first evaluation point following completion of the second treatment cycle. […] Five patients, including patients with melanoma and renal cell cancer, continued to show stable disease, some with evidence of regression of individual tumor lesions, after four cycles of treatment. Four patients were considered to have stable disease after at least six cycles of treatment.

[4] = system: NCI-60 tumor cell line panel; format: cell-based; settings: average over panel
[5] = system: MMP-9, TNFα, IL-8, and VEGF; assay: Phase I trial, circulating inflammatory cytokines; format: in vivo, human
Procedure: Based on the known anti-inflammatory properties of CDDO-Me, circulating inflammatory cytokines were evaluated in patients in the Phase I trial. At doses as low as 5 mg/day, there was a reduction of several circulating pro-inflammatory cytokines and chemokines including MMP-9, TNFα, IL-8, and VEGF.

[6] = system: 4T1 Syngeneic Breast Cancer; settings: i.v., cited from earlier work
[7] = system: COX-2, iNOS, phosphorylated STAT3 (pSTAT3); assay: Phase I trial, tumor biopsy data
[8] = system: NQO1 (NAD(P)H:quinone oxidoreductase); assay: Phase I trial, phase 2 gene products in peripheral blood mononuclear cells; format: in vivo, human; settings: doses of 10 mg/day and above
Source text: Additionally, phase 2 gene products, which include antioxidant and detoxification enzymes, have been monitored in peripheral blood mononuclear cells of patients in the Phase I study.

[9] = Approximate solubility, solvent addition method; format: physicochemical; settings: thermodynamic from solid, room temperature
Procedure: A weighed sample was treated with aliquots of the test solvent at room temperature. Complete dissolution of the test material was determined by visual inspection. Solubility was estimated based on the total solvent used to provide complete dissolution. The actual solubility may be greater than the value calculated because of the use of solvent aliquots that were too large or due to a slow rate of dissolution. […] If complete dissolution was achieved as a result of only one aliquot addition, the solubility is expressed as “greater than.” Approximate solubilities were determined in various solvents at room temperature, with the results as provided in Table 2.

[10] = system: MCF-7/Her-2 Breast Cancer Xenograft; settings: i.v.; doses at or below the MTD; Konopleva et al. 2006; cited from earlier work
[11] = system: DU-145 Prostate Cancer Xenograft; assay: DU-145 Prostate Cancer Xenograft; settings: p.o.
[12] = system: NCI-H460 Lung Cancer Xenograft; assay: NCI-H460 Lung Cancer Xenograft; settings: p.o.

COC(=O)[C@]12CCC(C)(C)C[C@H]1[C@H]1C(=O)C=C3[C@@]4(C)C=C(C#N)C(=O)C(C)(C)[C@@H]4CC[C@@]3(C)[C@]1(C)CC2 [CDDO methyl ester, methyl 2-cyano-3,12-dioxoleana-1,9(11)-dien-28-oate]
comparison with Gemcitabine [1]: CDDO-Me outperformed | DRUG ACTIVITY, TGI (Tumor Growth Inhibition) ([1]; doses at or below the MTD): 51% TGI | patients with serum creatinine significantly lower than pre-treatment baseline [2]: more than 80% | drug-related adverse events ([3]; 5 to 900 mg/day, 21 days on / 7 days rest): no significant drug-related adverse events reported | patients considered to have stable disease ([3]; after at least six cycles of treatment): Four | patients continuing to show stable disease ([3]; after four cycles of treatment): Five | tolerability ([3]; capsules of micronized Form A, 5 to 900 mg/day, 21 days on / 7 days rest, 21 adult patients): very well tolerated | evaluable patients with stable disease ([3]; first evaluation point after the second treatment cycle): approximately 75% | new metastases ([3]; patients receiving at least 40 mg per day): No new metastases developed | pIC50 [4]: ~7.46 | circulating TNFα ([5]; 3 patients with elevated baseline TNF levels, 10, 20 and 40 mg per day): reduced substantially or to below detectable limits | circulating pro-inflammatory cytokines and chemokines including MMP-9, TNFα, IL-8, and VEGF ([5]; doses as low as 5 mg/day): reduction | DRUG ACTIVITY, suppression ([6]; Delayed Treatment): 67% suppression | animals tumor-free at sacrifice ([6]; Delayed Treatment, sacrifice on Day 95): 33% of animals tumor-free at | DRUG ACTIVITY, suppression ([6]; Early Treatment, Ling et al. 2007): 100% suppression | animals tumor-free at sacrifice ([6]; Early Treatment, sacrifice on Day 85): All animals remained tumor-free | tumor tissue levels of COX-2, iNOS and pSTAT3 ([7]; biopsies of several patients after two cycles): pronounced reductions | tumor cell death in biopsy ([7]; several patients, after two cycles): pronounced degree of tumor cell death | NQO1 in peripheral blood mononuclear cells [8]: Significant induction | solubility ([9]; isopropanol/water (10:1), organic solvent or mixture, (10:1) Isopropanol/water): 4 mg/mL (≈ 7.91 mM) | solubility ([9]; organic solvent or mixture, 1,4-Dioxane): 21 mg/mL (≈ 41.5 mM) | solubility ([9]; organic solvent or mixture, ACN (acetonitrile)): 66 mg/mL (≈ 131 mM) | solubility ([9]; organic solvent or mixture, Acetone): 70 mg/mL (≈ 138 mM) | solubility ([9]; organic solvent or mixture, DCM (dichloromethane)): > 194 mg/mL | solubility ([9]; organic solvent or mixture, EtOAc (ethyl acetate)): 36 mg/mL (≈ 71.2 mM) | solubility ([9]; organic solvent or mixture, EtOH (ethanol)): 4 mg/mL (≈ 7.91 mM) | solubility ([9]; organic solvent or mixture, Hexanes): < 1 mg/mL | solubility ([9]; organic solvent or mixture, MTBE (tert-butyl methyl ether)): 4 mg/mL (≈ 7.91 mM) | solubility ([9]; organic solvent or mixture, MeOH (methanol)): 8 mg/mL (≈ 15.8 mM) | solubility ([9]; organic solvent or mixture, THF (tetrahydrofuran)): 97 mg/mL (≈ 192 mM) | solubility ([9]; organic solvent or mixture, Toluene): 38 mg/mL (≈ 75.1 mM) | solubility ([9]; Water): < 0.1 mg/mL | DRUG ACTIVITY, regression [10]: 15% regression | DRUG ACTIVITY, TGI (Tumor Growth Inhibition) ([11]; doses at or below the MTD): 77% TGI | TGI, multiple schedules tested ([11]; multiple schedules): 60-77% | comparison with radiation [12]: Me as effective as radiation | DRUG ACTIVITY, TGI (Tumor Growth Inhibition) ([12]; doses at or below the MTD): 78% TGI^1
